Source: patent publication US20240299359A1, “PHARMACEUTICAL COMPOSITION FOR ANIMALS CONTAINING 5-HYDROXY-METHYLIMIDAZOLIDINE-2,4-DIONE COMPOUND AS ACTIVE INGREDIENT” (KYONGBO PHARM. CO., LTD., priority 2021, published 2024)
Several values for one entry are separate records, joined by “and”; a condition that tells them apart may be missing. Equal values may be shown once.

System: beagles
Experiment: 13-week repeated oral toxicity: hematological test
Format: in vivo, beagle
Method: Fasting was conducted the day before administration (blood test date, pre), the 4th week (day 29) after administration, the 8th week (day 57) after administration, and the 13th week (day 92) after administration, and when the remaining feed was present in the feed container 3 hours after feeding on the day of fasting, it was removed.
All subjects were fasted for 16 hours and measurements were then performed pre (before administration), 4 weeks (day 29) after administration, 8 weeks (day 57) after administration, and 13 weeks (day 92) after administration. Within 3 hours after 2 to 3 ml of blood collected from the jugular vein of each subject was injected into a CBC bottle containing EDTA, RBC, HGB, HCT, RBC indices (MCV, MCH, MCHC), and platelet count and WBC differential count were measured using an automatic hematometer.

[1] = G2 200 mg/kg group, female (F4-F6, Mean), before administration (day 0)
[2] = G2 200 mg/kg group, female (F4-F6, Mean), before administration (day 0), mean
[3] = G2 200 mg/kg group, male (M4-M6, Mean), before administration (day 0)
[4] = G2 200 mg/kg group, male (M4-M6, Mean), before administration (day 0), mean
[5] = G2 200 mg/kg, repeated administration for 13 weeks, female, group mean
[6] = G2 200 mg/kg, repeated administration for 13 weeks, female, individual animals
[7] = G2 200 mg/kg, repeated administration for 13 weeks, male, group mean
[8] = G2 200 mg/kg, repeated administration for 13 weeks, male, individual animals
[9] = G3 500 mg/kg group, female (F7-F9, Mean), before administration (day 0)
[10] = G3 500 mg/kg group, female (F7-F9, Mean), before administration (day 0), mean
[11] = G3 500 mg/kg group, male (M7-M9, Mean), before administration (day 0)
[12] = G3 500 mg/kg group, male (M7-M9, Mean), before administration (day 0), mean
[13] = G3 500 mg/kg, repeated administration for 13 weeks, female, group mean

## CN1C(=O)NC(=O)C1O (stereo not drawn) [KBP-001, 5-hydroxy-1-methylimidazolidine-2,4-dione]
[1]
  HCT: 47.0% and 49.6% and 51.3%
  HGB: 15. g/dl and 16.7 g/dl and 17.5 g/dl
  MCH: 22.5 pg and 22.6 pg and 22.7 pg
  MCHC: 33.8 g/dL and 33.6 g/dL and 34.1 g/dL
  MCV: 66.6 fL and 67.3 fL and 66.7 fL
  Retic: 0.77% and 1.34% and 1.01%
  WBC Differential Counting Baso: 1.0% (2×) and 0.8%
  WBC Differential Counting Eos: 7.3% and 5.5% and 4.5%
  WBC Differential Counting Lymph: 30.0% and 20.55% and 30.2%
  WBC Differential Counting Mono: 5.7% and 6.2% and 6.1%
  WBC Differential Counting Neut: 55.5% and 66.3% and 57.6%
[2]
  HCT: 49.30%
  HGB: 16.70 g/dL
  MCH: 22.6 pg
  MCHC: 33.83 g/dL
  MCV: 66.9 fL
  Retic: 1.04%
  WBC Differential Counting Baso: 0.93%
  WBC Differential Counting Eos: 5.77%
  WBC Differential Counting Lymph: 27.00%
  WBC Differential Counting Mono: 6.00%
  WBC Differential Counting Neut: 59.80%
[3]
  HCT: 48.1% and 48.8% and 45.2%
  HGB: 16.0 g/dL and 15.2 g/dL
  MCH: 22.2 pg and 21.7 pg and 21 pg
  MCHC: 33.3 g/dL and 32.9 g/dL and 33.7 g/dL
  MCV: 66.8 fL and 66.1 fL and 62.3 fL
  Retic: 1.21% and 1.16% and 1.11%
  WBC Differential Counting Baso: 1.0% and 0.9% and 0.8%
  WBC Differential Counting Eos: 3.5% and 4.7% and 6.4%
  WBC Differential Counting Lymph: 40.5% and 29.4% and 23.2%
  WBC Differential Counting Mono: 4.7% and 8.3% and 6.0%
  WBC Differential Counting Neut: 49.6% and 56.2% and 63.3%
[4]
  HCT: 47.37%
  HGB: 15.73 g/dL
  MCH: 21.6 pg
  MCHC: 33.30 g/dL
  MCV: 65.1 fL
  WBC Differential Counting Baso: 0.90%
  WBC Differential Counting Eos: 4.87%
  WBC Differential Counting Lymph: 31.03%
  WBC Differential Counting Mono: 6.33%
  WBC Differential Counting Neut: 56.37%
[5]
  HGB: 15.77 g/dL
  MCH: 22.9 pg
  MCHC: 33.80 g/dL
  MCV: 67.9 fL
  Retic: 0.41%
  WBC Differential Counting(%) Baso: 0.77%
  WBC Differential Counting(%) Eos: 8.10%
  WBC Differential Counting(%) Lymph: 28.50%
  WBC Differential Counting(%) Mono: 5.30%
  WBC Differential Counting(%) Neut: 56.90%
[6]
  HCT: 45.3% and 47.7% and 46.9%
  HGB: 15.3 g/dl and 16.0 g/dl (2×)
  MCHC: 33.7 g/dL and 33.6 g/dL and 34.1 g/dL
  MCV: 67.2 fL and 68.8 fL and 67.5 fL
  Retic: 0.25% and 0.42% and 0.55%
  WBC Differential Counting(%) Baso: 0.8% (2×) and 0.7%
  WBC Differential Counting(%) Eos: 8.1% and 7.4% and 8.8%
  WBC Differential Counting(%) Lymph: 25.1% and 33.4% and 27.0%
  WBC Differential Counting(%) Mono: 5.3% and 5.0% and 5.6%
  WBC Differential Counting(%) Neut: 60.2% and 53.1% and 57.4%
[7]
  HCT: 46.43%
  HGB: 15.53 g/dL
  MCH: 22.2 pg
  MCHC: 33.40 g/dL
  MCV: 66.4 fL
  Retic: 0.50%
  WBC Differential Counting(%) Baso: 0.67%
  WBC Differential Counting(%) Eos: 6.23%
  WBC Differential Counting(%) Lymph: 31.10%
  WBC Differential Counting(%) Mono: 6.47%
  WBC Differential Counting(%) Neut: 55.10%
[8]
  HCT: 43.8% and 47.0% and 48.5%
  HGB: 14.4 g/dL and 15.8 g/dL and 16.4 g/dL
  MCH: 22 pg and 22.8 pg and 21.8 pg
  MCHC: 32.9 g/dL and 33.5 g/dL and 33.8 g/dL
  MCV: 66.8 fL and 67.9 fL and 64.5 fL
  Retic: 0.45% and 0.59% and 0.46%
  WBC Differential Counting(%) Baso: 0.8% and 0.7% and 0.5%
  WBC Differential Counting(%) Eos: 6.8% and 5.3% and 6.6%
  WBC Differential Counting(%) Lymph: 35.9% and 32.7% and 24.7%
  WBC Differential Counting(%) Mono: 6.1% and 7.5% and 5.8%
  WBC Differential Counting(%) Neut: 50.0% and 53.4% and 61.9%
[9]
  HCT: 44.4% and 50.3% and 47.5%
  HGB: 14.6 g/dL and 16.9 g/dL and 15.9 g/dL
  MCH: 22.5 pg and 22.2 pg and 22.1 pg
  MCHC: 33.0 g/dL and 33.5 g/dL
  MCV: 68.3 fL and 66.4 fL and 66.2 fL
  Retic: 0.61% and 0.91% and 1.01%
  WBC Differential Counting Baso: 0.6% and 1.5% and 0.4%
  WBC Differential Counting Eos: 3.4% and 1.1% and 3.7%
  WBC Differential Counting Lymph: 42.0% and 44.2% and 28.3%
  WBC Differential Counting Mono: 4.9% and 3.7% and 5.9%
[10]
  HCT: 47.40%
  HGB: 15.80 g/dL
  MCH: 22.3 pg
  MCHC: 33.33 g/dL
  MCV: 67 fL
  Retic: 0.84%
  WBC Differential Counting Baso: 0.83%
  WBC Differential Counting Eos: 2.73%
  WBC Differential Counting Lymph: 38.17%
  WBC Differential Counting Mono: 4.83%
[11]
  HCT: 44.8% and 43.0% and 52.1%
  HGB: 15.0 g/dL and 13.8 g/dL and 17.4 g/dL
  MCH: 23 pg and 22.3 pg and 22.9 pg
  MCHC: 33.4 g/dL and 32.1 g/dL
  MCV: 68 fL and 69.4 fL and 68.7 fL
  Retic: 0.60% and 0.46% and 0.84%
  WBC Differential Counting Baso: 0.4% and 0.8% and 1.1%
  WBC Differential Counting Eos: 2.6% and 8.5% and 2.9%
  WBC Differential Counting Lymph: 36.0% and 33.1% and 36.7%
  WBC Differential Counting Mono: 5.9% and 7.8% and 5.8%
  WBC Differential Counting Neut: 54.8% and 49.4% and 53.0%
[12]
  HCT: 46.63%
  HGB: 15.40 g/dL
  MCH: 22.7 pg
  MCHC: 32.97 g/dL
  MCV: 69 fL
  Retic: 0.63%
  WBC Differential Counting Baso: 0.77%
  WBC Differential Counting Eos: 4.67%
  WBC Differential Counting Lymph: 35.27%
  WBC Differential Counting Mono: 6.50%
  WBC Differential Counting Neut: 52.40%
[13]
  HCT: 48.00%
  HGB: 16.00 g/dL
